Inhibition and Activity data for six molecules are collected here from ChEMBL document CHEMBL1158320, “Antiandrogenic natural Diels--Alder-type adducts from Brosimum rubescens” (J Nat Prod, 1997).

The source made the active and inactive calls. The calls are words filed in the database; no cut-off is given here.

What all share (conditions): Prostate gland
The species named for experiment [1] is Rattus norvegicus. The experiment can be described thus: Inhibition of 5alpha reductase in Wistar rat ventral prostate at 50 ug/mL by radiochromatography. The class given is tissue-based.
The species named for experiment [2] is Rattus norvegicus. The experiment can be described thus: Inhibition of 5alpha reductase in Wistar rat ventral prostate at 100 ug/mL by radiochromatography. The class given is tissue-based.
Experiment [3] addresses T1, Androgen receptor (Rattus norvegicus) (UniProt P15207).
T1 sequence (whole entry): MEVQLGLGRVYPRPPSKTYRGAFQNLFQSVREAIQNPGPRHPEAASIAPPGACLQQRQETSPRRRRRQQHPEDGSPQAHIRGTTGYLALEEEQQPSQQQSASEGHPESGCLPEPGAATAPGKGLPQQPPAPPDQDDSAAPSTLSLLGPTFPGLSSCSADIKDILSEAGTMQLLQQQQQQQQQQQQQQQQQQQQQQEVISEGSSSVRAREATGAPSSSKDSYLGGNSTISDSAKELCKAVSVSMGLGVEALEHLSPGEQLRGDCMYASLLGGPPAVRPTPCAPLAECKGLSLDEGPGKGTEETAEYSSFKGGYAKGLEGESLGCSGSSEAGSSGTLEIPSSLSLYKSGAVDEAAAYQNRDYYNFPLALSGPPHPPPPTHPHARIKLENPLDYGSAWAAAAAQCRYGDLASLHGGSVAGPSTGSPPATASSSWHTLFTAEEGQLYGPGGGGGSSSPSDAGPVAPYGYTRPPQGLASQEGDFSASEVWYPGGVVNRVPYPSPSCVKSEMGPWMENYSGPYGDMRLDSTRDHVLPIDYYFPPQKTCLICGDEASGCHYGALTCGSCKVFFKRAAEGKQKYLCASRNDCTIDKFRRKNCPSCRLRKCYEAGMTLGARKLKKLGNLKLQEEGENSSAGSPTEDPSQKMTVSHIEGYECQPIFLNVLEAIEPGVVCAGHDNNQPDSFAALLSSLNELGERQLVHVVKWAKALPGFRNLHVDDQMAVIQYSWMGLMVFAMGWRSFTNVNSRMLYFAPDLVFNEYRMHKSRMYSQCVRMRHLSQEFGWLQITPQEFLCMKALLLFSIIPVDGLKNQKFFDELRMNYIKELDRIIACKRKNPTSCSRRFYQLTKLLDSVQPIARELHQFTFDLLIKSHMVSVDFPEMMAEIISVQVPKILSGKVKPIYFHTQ
Nature of the experiment: Displacement of [3H]dihydrotestosterone from androgen receptor in Wistar rat ventral prostate at 100 ug/mL by liquid scintillation counting. The class given is tissue-based. On the technique in general: Loss of bound radioactivity is the signal in a displacement assay; it reports binding, not function.

The species entered for experiment [4] is Rattus norvegicus. Nature of the experiment: Inhibition of 5alpha reductase in Wistar rat ventral prostate at 200 ug/mL by radiochromatography. The class given is tissue-based.
The target in experiment [5] is T1, Androgen receptor (Rattus norvegicus). The experiment can be described thus: Displacement of [3H]dihydrotestosterone from androgen receptor in Wistar rat ventral prostate at 200 ug/mL by liquid scintillation counting.
Experiment [6] has the same target. Nature of the experiment: Displacement of [3H]dihydrotestosterone from androgen receptor in Wistar rat ventral prostate at 50 ug/mL by liquid scintillation counting. The format is tissue-based.

In the case of `COc1cc(O)ccc1[C@@H]1CC(C)=C[C@H]2c3cc4ccc(=O)oc4cc3O[C@H](c3ccc(O)c(O)c3)[C@H]21`, the inhibition in the experiment filed under Rattus norvegicus [1] is 0.2%; in the experiment listed under Rattus norvegicus [2] it was 8.4%; in experiment [3], -8.6%; in the experiment filed under Rattus norvegicus [4], 19.8%.

For the molecule `COc1cc(O)ccc1[C@@H]1CC(C)=C[C@H]2c3cc4ccc(=O)oc4cc3O[C@H](c3ccc(O)cc3)[C@H]21`, the inhibition in experiment [5] was determined as 61.5%; in the experiment listed under Rattus norvegicus [1], 3.4%; in the experiment listed under Rattus norvegicus [2] it was 44.1%; in experiment [6] it was 56.5%; in experiment [3], 57.5%; in the experiment filed under Rattus norvegicus [4], 69.2%.

Turning to `COc1cc(O)ccc1[C@H]1Oc2cc3oc(=O)ccc3cc2[C@@H]2C=C(C)C[C@@H](c3ccc(O)c(O)c3)[C@H]12`, the inhibition in the experiment listed under Rattus norvegicus [1] is 0.3%; in the experiment listed under Rattus norvegicus [2] it was 4.8%; in the experiment listed under Rattus norvegicus [4], 5.2%.

As for `COc1cc(O)ccc1[C@H]1Oc2cc3oc(=O)ccc3cc2[C@@H]2C=C(C)C[C@@H](c3ccc(O)cc3OC)[C@H]12`, the inhibition in experiment [5] is 62%; in the experiment listed under Rattus norvegicus [1], 8.6%; in the experiment listed under Rattus norvegicus [2], 49.9%; in experiment [6] it was 60.3%; in experiment [3] it was 70.9%; in the experiment listed under Rattus norvegicus [4] it was 72.3%.

With `CC[C@H]1C[C@H]2[C@@H]3CCC4=CC(=O)CC[C@@H]4[C@H]3CC[C@]2(C)[C@H]1O`, the outcome in the experiment listed under Rattus norvegicus [1] was Active.

As to `COc1cc(O)ccc1[C@H]1Oc2cc3oc(=O)ccc3cc2[C@@H]2C=C(C)C[C@@H](c3ccc(O)cc3)[C@H]12`, the inhibition was determined as 78.6% in experiment [5]; 5.4% in the experiment listed under Rattus norvegicus [1]; 28.8% in the experiment filed under Rattus norvegicus [2]; 62.5% in experiment [6]; 73.3% in experiment [3]; 59.2% in the experiment listed under Rattus norvegicus [4].

By inhibition is commonly meant the relative decrease from the control value, in per cent.
